Laboratory results taken from PMC4991450, “Protein arginine methyltransferase 1 may be involved in pregnane x receptor-activated overexpression of multidrug resistance 1 gene during acquired multidrug resistant” (Oncotarget, 2016).

Target: Protein arginine methyltransferase 1 (PRMT1) (Homo sapiens, UniProt Q99873)
Experiment: Transzyme HMT PRMT1 fluorescence polarization enzyme assay, rescreened at […]
Format: biochemical

Protein arginine methyltransferase 1 (PRMT1), sequence (Q99873 whole entry): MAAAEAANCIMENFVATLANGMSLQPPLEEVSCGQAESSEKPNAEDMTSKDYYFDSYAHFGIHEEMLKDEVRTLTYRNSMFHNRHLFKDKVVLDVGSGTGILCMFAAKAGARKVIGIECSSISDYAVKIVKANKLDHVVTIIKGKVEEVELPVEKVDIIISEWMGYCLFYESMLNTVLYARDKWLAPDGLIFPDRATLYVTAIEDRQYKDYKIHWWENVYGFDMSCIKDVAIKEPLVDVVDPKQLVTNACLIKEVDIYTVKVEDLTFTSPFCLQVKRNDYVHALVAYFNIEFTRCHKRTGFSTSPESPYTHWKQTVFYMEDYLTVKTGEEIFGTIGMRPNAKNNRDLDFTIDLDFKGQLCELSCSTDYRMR

SMILES | Transzyme HMT PRMT1 fluorescence polarization enzyme assay, rescreened at 0-100
CCOC(=O)C1=C(C)NC(C)=C(C(=O)OC)C1c1cccc(Cl)c1Cl (centres unmarked) [felodipline] | Five compounds were found to inhibit PRMT1 activity, including rutin, isoquercitrin, salvianolic acid A (SAA), naproxen, and felodipline
O=c1c(O[C@@H]2O[C@H](CO)[C@@H](O)[C@H](O)[C@H]2O)c(-c2ccc(O)c(O)c2)oc2cc(O)cc(O)c12 [isoquercitrin] | Five compounds were found to inhibit PRMT1 activity, including rutin, isoquercitrin, salvianolic acid A (SAA), naproxen, and felodipline
COc1ccc2cc([C@H](C)C(=O)O)ccc2c1 [naproxen] | Five compounds were found to inhibit PRMT1 activity, including rutin, isoquercitrin, salvianolic acid A (SAA), naproxen, and felodipline
C[C@@H]1O[C@@H](OC[C@H]2O[C@@H](Oc3c(-c4ccc(O)c(O)c4)oc4cc(O)cc(O)c4c3=O)[C@H](O)[C@@H](O)[C@@H]2O)[C@H](O)[C@H](O)[C@H]1O [rutin] | Five compounds were found to inhibit PRMT1 activity, including rutin, isoquercitrin, salvianolic acid A (SAA), naproxen, and felodipline
O=C(/C=C/c1ccc(O)c(O)c1/C=C/c1ccc(O)c(O)c1)O[C@H](Cc1ccc(O)c(O)c1)C(=O)O [salvianolic acid A] | Five compounds were found to inhibit PRMT1 activity, including rutin, isoquercitrin, salvianolic acid A (SAA), naproxen, and felodipline
